Here are results for 3 compounds from article PMC6940354, “Comparative Assessment of the New PDE7 Inhibitor – GRMS-55 and Lisofylline in Animal Models of Immune-Related Disorders: A PK/PD Modeling Approach” (Pharmaceutical Research, 2020).

Marks after values point to notes of the source that are not given here.

One series deals with T1, hrPDE7A (Homo sapiens, UniProt Q13946).
T1 construct: purchased SignalChem, Richmond, Canada
Nature of the series: PDE-Glo Phosphodiesterase Assay, hrPDE7A. In kind it is biochemical. The note with it: cAMP substrate, read-out: IC50 PDE7A, Estimate (CV%).

In a further series the target is hrPDE3A (Homo sapiens, UniProt Q14432). Nature of the series: PDE-Glo Phosphodiesterase Assay, hrPDE3A.
The next series addresses hrPDE5A (Homo sapiens, UniProt O76074). Nature of the series: PDE-Glo Phosphodiesterase Assay, hrPDE5A.
The target in a further series is hrPDE4D (Homo sapiens, UniProt Q08499). Nature of the series: PDE-Glo Phosphodiesterase Assay, hrPDE4D.
The target of the next series is T2, hrPDE1B (Homo sapiens, UniProt Q01064).
T2 construct: purchased SignalChem, Richmond, Canada
Briefly: PDE-Glo Phosphodiesterase Assay, hrPDE1B. In kind it is biochemical. The conditions noted are these: cAMP substrate, read-out: IC50 PDE1B, Estimate (CV%).

Details of series [1]: method as in PMID 27065076. The note with it: male Wistar rats; data already published ref [10]; cited from earlier work.
The target of another series is hrPDE10A (Homo sapiens, UniProt Q9Y233). Nature of the series: PDE-Glo Phosphodiesterase Assay, hrPDE10A.
A further series has as its system cAMP degradation. Also on record: method as in PMID 28730281. The note with it: rats, cAMP as a marker of pharmacological response ref [9]; cited from earlier work.
The nature of series [2]: Pharmacokinetics in male Wistar rats. It is filed as in vivo, rat. The conditions noted are these: for half-life: male rats (Wistar), IV, read-out: elimination half-life. How it is done: The same vehicles as these in pharmacodynamic studies for each compound and route of administration were used. Rats were implanted with catheters into the jugular vein and after a two-day period they were administered with the investigated compounds by the listed above routes of administration. […] Samples were subsequently centrifuged at 3000 × g for 10 min. Plasma was stored at −80°C until analysis.
A detailed description of these methods has been provided in the supplementary materials.
Firstly, the concentration-time data collected for each individual compound from one of the investigated rat strains (Wistar or Lewis) were subjected to a non-compartmental analysis (NCA). Subsequently, pharmacokinetic models were developed for each investigated compound and strain of rat. One- and two- compartment models with linear or non-linear elimination were tested. […] The final models were chosen based on the goodness-of-fit criteria, such as Akaike Information Criterion (AIC), Schwarz Bayesian Criterion (SBC), weighted sum of squared residuals (WSSR), a visual inspection of fitting, and precision of estimated parameters expressed as coefficients of variation % (CVs%). NCA analysis was performed in Phoenix WinNonlin v. 7.0 (Pharsight Corp., a Certara Company, Princeton, New Jersey). Pharmacokinetic model parameters were estimated in ADAPT 5 software (BMSR, Los Angeles, CA) using the weighted least squares algorithm. Fraction of the dose absorbed (F) following an extravascular (EV) administration was calculated according to the Eq. 4:4 F=AUC0−tEV·DIV/AUC0−tIV·DEV where AUC0-t is the area under concentration versus time curve from 0 to the last measured point and D is dose.
PK/PD and PK/PD/DIS progression models were developed considering the mechanism of action of the investigated compounds, the mechanisms of disease progression in the case of CIA, and the subsequent stages leading to TNF-α release in the case of LPS-induced endotoxemia. Various numbers of transit compartments were tested during development of the models, and the final models were chosen based on the goodness-of-fit criteria, such as AIC, SBC, a visual inspection of the fitting, and parameter precision. Estimated values of pharmacokinetic parameters were fixed during PK/PD and PK/PD/DIS progression model fitting procedures. […] PK/PD and PK/PD/DIS progression modeling were performed in ADAPT 5 software using the weighted least squares algorithm.
The applied model is a modified indirect response model ([19]) with implemented transit compartments (T1-T4) that describe the delay of the observed pharmacodynamic response. In this scheme τ is the mean transit time, kin is the time limited (from 0 to tlag) zero-order rate constant of production of a TNF-α precursor (e.g., TNF-α mRNA). […]

Series [3] concerns LPS-stimulated murine macrophages (RAW263.7 cells). Details: method as in PMID 14998551. The note with it: LPS-stimulated murine macrophage cell line ref [31]; read-out: IC50, TNF-α production; cited from earlier work.
For series [4] the following is noted: depending on the species; earlier study ref [37]; cited from earlier work.

Sequence of hrPDE3A (Q14432 whole entry): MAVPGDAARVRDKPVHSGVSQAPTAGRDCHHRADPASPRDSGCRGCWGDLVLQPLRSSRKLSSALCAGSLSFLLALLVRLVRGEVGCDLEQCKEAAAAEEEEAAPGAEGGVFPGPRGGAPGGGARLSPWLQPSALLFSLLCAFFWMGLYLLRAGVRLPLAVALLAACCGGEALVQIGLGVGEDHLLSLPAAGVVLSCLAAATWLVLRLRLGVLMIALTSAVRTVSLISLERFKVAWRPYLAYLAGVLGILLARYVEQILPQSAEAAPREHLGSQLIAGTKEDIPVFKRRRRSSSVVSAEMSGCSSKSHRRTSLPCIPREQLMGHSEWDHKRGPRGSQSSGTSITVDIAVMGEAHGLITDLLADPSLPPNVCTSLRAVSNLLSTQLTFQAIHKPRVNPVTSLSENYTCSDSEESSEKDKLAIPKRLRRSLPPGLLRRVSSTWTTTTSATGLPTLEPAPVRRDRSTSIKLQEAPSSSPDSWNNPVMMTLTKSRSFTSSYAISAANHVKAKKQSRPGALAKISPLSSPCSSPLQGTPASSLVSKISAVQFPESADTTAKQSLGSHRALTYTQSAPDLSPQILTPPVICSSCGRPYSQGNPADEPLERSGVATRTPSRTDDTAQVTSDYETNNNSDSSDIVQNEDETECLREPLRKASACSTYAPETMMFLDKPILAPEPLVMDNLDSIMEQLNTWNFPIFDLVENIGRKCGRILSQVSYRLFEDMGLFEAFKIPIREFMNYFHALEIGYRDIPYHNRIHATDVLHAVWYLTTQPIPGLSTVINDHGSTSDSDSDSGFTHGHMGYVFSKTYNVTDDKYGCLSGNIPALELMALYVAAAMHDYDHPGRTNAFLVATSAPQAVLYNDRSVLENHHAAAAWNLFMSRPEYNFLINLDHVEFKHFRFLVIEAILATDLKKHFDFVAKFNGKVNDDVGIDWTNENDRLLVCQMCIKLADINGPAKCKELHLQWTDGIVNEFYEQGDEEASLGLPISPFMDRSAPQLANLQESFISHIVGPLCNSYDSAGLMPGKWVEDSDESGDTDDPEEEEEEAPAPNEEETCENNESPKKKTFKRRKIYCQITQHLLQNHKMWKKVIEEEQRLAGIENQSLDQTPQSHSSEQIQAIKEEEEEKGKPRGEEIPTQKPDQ
Sequence of hrPDE4D (Q08499 whole entry): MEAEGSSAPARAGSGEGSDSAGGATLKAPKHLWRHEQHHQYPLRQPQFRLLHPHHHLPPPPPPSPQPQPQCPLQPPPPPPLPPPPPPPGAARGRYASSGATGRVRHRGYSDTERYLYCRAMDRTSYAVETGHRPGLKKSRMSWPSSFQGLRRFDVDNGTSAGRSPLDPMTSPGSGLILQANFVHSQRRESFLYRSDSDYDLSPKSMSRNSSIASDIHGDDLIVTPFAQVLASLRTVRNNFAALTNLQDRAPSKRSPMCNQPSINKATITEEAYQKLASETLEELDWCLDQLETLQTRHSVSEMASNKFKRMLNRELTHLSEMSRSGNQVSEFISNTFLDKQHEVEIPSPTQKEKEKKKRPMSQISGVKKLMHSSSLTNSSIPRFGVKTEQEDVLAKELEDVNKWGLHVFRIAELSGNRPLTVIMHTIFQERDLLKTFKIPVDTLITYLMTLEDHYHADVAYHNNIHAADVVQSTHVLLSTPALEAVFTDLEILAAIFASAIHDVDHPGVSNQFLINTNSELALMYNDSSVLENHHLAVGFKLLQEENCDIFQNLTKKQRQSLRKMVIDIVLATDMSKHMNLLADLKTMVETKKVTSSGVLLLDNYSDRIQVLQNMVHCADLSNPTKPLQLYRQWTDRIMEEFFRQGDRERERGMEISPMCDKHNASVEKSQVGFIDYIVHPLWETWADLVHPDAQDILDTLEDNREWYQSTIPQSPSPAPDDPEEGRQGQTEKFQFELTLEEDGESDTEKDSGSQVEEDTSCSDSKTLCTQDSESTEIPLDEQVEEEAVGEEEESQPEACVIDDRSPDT
Sequence of hrPDE10A (Q9Y233 whole entry): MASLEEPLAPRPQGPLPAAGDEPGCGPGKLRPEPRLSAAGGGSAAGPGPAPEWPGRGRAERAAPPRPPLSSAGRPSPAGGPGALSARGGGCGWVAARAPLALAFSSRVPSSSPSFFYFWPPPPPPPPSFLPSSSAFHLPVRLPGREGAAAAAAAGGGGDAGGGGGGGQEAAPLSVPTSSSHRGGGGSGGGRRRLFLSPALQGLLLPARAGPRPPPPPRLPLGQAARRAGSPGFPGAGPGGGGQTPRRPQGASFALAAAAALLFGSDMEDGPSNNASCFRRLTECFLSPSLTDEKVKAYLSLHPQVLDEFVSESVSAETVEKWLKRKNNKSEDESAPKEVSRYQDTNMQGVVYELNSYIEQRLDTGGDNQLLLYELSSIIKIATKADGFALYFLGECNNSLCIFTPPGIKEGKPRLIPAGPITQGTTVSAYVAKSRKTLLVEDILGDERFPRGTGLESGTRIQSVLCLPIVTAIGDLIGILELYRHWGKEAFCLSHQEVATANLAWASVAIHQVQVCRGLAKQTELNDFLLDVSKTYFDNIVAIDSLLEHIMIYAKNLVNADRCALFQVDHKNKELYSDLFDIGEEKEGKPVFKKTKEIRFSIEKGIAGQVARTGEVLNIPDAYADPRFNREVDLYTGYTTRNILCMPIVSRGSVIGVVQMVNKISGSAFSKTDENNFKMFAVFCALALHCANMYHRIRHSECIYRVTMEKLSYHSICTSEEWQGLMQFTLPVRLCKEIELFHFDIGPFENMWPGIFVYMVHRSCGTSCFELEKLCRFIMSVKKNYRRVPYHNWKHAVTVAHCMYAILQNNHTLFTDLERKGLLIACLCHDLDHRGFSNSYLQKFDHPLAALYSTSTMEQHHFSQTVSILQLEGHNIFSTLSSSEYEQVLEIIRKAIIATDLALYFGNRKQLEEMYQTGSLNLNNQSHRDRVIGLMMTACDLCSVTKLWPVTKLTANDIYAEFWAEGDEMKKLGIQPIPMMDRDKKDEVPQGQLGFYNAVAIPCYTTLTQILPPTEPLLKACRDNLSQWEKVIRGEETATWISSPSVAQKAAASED
T2 sequence (Q01064 whole entry): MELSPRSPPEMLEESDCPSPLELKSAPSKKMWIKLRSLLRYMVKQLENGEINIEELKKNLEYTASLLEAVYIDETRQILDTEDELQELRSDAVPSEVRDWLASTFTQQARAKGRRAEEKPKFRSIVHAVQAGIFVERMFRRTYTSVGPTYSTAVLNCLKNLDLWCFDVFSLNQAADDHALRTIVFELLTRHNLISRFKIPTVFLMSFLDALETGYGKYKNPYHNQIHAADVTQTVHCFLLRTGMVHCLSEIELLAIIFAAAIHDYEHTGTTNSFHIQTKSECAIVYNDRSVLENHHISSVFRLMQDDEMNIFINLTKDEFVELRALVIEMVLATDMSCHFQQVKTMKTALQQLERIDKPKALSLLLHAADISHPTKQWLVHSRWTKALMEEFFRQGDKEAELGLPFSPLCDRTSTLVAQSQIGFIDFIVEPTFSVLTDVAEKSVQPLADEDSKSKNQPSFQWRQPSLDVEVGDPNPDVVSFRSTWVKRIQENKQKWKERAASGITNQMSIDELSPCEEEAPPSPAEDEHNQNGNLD
T1 sequence (Q13946 whole entry): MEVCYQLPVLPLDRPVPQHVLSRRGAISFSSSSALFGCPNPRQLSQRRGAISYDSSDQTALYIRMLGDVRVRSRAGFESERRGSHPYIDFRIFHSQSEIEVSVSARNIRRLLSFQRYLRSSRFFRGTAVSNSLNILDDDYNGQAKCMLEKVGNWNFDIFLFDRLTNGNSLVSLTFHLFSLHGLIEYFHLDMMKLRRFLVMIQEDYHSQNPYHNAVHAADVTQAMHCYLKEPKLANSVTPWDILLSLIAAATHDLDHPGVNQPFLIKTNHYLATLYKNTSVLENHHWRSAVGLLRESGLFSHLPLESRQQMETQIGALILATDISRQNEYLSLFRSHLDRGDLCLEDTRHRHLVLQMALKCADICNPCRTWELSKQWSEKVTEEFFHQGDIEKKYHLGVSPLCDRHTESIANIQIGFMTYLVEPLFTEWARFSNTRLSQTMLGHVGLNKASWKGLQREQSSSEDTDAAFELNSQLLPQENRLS
Procedure for hrPDE10A: (§1) Inhibitory activity of the investigated and reference compounds against various subtypes of PDEs was analyzed using the PDE-Glo Phosphodiesterase Assay following the manufacturer’s instruction (Promega Corp., USA). […] The values of IC50, Imax, and γ parameters of the investigated and reference compounds were estimated using non-linear regression in Phoenix WinNonlin v. […] Each sample was performed in quadruplicate and the relative activity of each sample was calculated as E=sample activity/control activity·100% .
(§2) One and a half μL aliquots of PDE-Glo reaction buffer containing appropriate amounts of human recombinant PDE (hrPDE) 1B, 2A, 3A, 4B, 4D, 5A, 7A, or 10A (SignalChem, Richmond, Canada) were placed into separate wells of a 384-well plate (Thermo Scientific, USA). The investigated compounds were initially dissolved in DMSO and then a serial dilution with DMSO was performed. Each dilution was mixed with PDE-Glo reaction buffer at a ratio of 1:5 (v/v). Then, 1 μL of the solution containing a PDE inhibitor and 2.5 μL of the substrate solution were added to each well. cGMP was used as a substrate in the case of hrPDE2A and hrPDE5A, while cAMP for other types of hrPDEs. The samples were incubated for 10 min at 30°C. […] The luminescence of each sample was measured by a microplate reader POLARstar Omega (BMG LABTECH, Germany).
Procedure for hrPDE1B: as §1, §2
Procedure for hrPDE3A: as §1, §2
Procedure for hrPDE4D: as §1, §2
Procedure for hrPDE5A: as §1, §2
Procedure for hrPDE7A: as §1, §2

Turning to `CC(O)CCCCn1c(=O)c2c(ncn2C)n(C)c1=O` (racemic) [(±)-LSF, lisofylline], the IC50 (as a rule, the concentration at which inhibition is half-maximal) was 297 µM at hrPDE7A; 73.4 µM against hrPDE3A; more than 100 µM on hrPDE5A; more than 200 µM on hrPDE4D; 12.9 µM on hrPDE1B; more than 100 µM on hrPDE10A. Besides, in [1], the “VLSF, volume of distribution of (±)-LSF, Estimate (CV%)” value is recorded as 1.22 (3.4)^a L kg^−1. For the same compound, the “Vmax, maximal elimination rate constant of (±)-LSF, Estimate (CV%)” value in series [1] was 0.433 (56.9)^a mg min^−1 kg^−1. For the same compound, the “IC50 value for the inhibition of cAMP degradation” value with cAMP degradation is 3.43 µg/mL.

As for `Cn1c(=O)c2c(nc(NCCc3ccccc3)n2CCCC(=O)NN=Cc2ccccc2O)n(C)c1=O` [GRMS-55, 4-(1,3-Dimethyl-2,6-dioxo-8-(phenethylamino)-2,3,6,7-tetrahydro-1H-purin-7-yl)-N′-(2-hydroxybenzylidene)butanehydrazide], the IC50 at hrPDE3A was 13.4 µM; against hrPDE5A, more than 100 µM; against hrPDE4D it was more than 200 µM; on hrPDE1B it was 2.5 µM; against hrPDE10A, 23.3 µM. For the same compound, the “elimination rate constant, times lower than that of rolipram” value in [2] (compared to rolipram) is “approx. 2 times”. Besides, the Vd in [2] (rat, plasma, male Wistar rats, GRMS-55 IV 20 mg kg^−1, 1-compartment model, read-out: V(GRMS-55), volume of distribution, Estimate (CV%)) is 1.59 L/kg. Further, in [2] (rat, plasma), the half-life (in general, the time in which the quantity being followed falls by half) was 22 min.

Consider `COc1ccc(C2CNC(=O)C2)cc1OC1CCCC1` (centres unmarked) [Rolipram, rolipram], for which the IC50 in [3] is 0.0593 µM. In series [4], the elimination half-life is 60 to 180 min. For the same compound, the half-life in [2] (rat, plasma) was determined as 11 min.
